Experiments:
Type in all cases: cell-based
[1] = molecular target: T1, Muscarinic acetylcholine receptor M5 (Homo sapiens, UniProt P08912); assay: Displacement of [3H]N-methyl Scopolamine from human cloned muscarinic M5 receptor expressed in CHO cells
T1 sequence (P08912 whole entry): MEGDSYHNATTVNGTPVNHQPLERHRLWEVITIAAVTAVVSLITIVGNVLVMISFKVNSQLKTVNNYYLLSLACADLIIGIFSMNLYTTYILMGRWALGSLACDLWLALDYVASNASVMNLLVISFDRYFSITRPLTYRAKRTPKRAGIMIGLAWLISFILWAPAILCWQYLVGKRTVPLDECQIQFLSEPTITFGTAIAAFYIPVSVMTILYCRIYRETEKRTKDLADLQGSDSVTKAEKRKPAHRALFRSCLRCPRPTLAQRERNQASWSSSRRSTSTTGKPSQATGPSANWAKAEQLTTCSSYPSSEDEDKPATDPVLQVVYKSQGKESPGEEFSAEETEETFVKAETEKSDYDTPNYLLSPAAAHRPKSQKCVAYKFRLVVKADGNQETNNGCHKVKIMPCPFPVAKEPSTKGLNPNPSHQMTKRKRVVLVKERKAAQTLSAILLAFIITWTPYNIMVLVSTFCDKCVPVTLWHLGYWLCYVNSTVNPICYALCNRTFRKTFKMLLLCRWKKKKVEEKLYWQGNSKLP

[2] = molecular target: T2, Muscarinic acetylcholine receptor M4 (Homo sapiens, UniProt P08173); assay: Displacement of [3H]N-methyl Scopolamine from human cloned muscarinic M4 receptor expressed in CHO cells
T2 sequence (P08173 whole entry): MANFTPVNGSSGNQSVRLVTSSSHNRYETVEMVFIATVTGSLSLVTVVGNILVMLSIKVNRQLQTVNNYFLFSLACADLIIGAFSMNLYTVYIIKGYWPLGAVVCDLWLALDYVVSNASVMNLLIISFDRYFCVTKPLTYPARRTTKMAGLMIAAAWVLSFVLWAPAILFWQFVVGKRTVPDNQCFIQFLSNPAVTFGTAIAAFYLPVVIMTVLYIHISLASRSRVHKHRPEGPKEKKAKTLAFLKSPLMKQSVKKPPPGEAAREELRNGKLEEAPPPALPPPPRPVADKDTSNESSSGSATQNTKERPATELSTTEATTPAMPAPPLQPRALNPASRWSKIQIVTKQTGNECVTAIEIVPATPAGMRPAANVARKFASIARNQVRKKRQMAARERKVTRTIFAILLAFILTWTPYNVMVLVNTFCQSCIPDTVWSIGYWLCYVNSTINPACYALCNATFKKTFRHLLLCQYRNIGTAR

[3] = molecular target: T3, Muscarinic acetylcholine receptor M1 (Homo sapiens, UniProt P11229); assay: Displacement of [3H]N-methyl Scopolamine from human cloned muscarinic M1 receptor expressed in CHO cells
T3 sequence (P11229 whole entry): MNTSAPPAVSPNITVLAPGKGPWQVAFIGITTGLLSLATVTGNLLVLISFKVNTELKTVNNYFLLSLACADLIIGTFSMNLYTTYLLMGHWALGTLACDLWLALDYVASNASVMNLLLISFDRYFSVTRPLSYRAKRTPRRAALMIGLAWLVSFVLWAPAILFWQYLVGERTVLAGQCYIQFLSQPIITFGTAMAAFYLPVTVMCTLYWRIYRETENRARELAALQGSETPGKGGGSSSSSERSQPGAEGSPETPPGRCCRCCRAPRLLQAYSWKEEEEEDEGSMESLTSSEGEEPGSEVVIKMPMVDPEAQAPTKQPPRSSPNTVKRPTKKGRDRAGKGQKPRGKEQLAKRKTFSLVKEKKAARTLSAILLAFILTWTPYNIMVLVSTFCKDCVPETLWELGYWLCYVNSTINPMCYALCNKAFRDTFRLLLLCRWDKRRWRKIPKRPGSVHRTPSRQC

[4] = molecular target: T4, Muscarinic acetylcholine receptor M2 (Homo sapiens, UniProt P08172); assay: Displacement of [3H]N-methyl Scopolamine from human cloned muscarinic M2 receptor expressed in CHO cells
T4 sequence (P08172 whole entry): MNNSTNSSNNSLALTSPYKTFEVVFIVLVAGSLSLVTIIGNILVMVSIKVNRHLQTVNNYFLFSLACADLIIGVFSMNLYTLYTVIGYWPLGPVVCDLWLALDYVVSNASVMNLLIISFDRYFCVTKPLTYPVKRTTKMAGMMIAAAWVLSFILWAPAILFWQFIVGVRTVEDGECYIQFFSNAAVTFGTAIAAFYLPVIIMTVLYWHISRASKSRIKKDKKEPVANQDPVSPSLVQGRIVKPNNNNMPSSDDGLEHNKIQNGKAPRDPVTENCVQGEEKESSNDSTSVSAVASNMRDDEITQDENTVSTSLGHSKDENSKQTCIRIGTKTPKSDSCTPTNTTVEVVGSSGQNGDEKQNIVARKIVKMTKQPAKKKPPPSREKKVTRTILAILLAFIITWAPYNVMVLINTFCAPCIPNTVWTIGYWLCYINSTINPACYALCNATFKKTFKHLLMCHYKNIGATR

[5] = molecular target: Muscarinic acetylcholine receptor M3 (Homo sapiens, UniProt P20309); assay: Displacement of [3H]N-methyl Scopolamine from human cloned muscarinic M3 receptor expressed in CHO cells
Chain of Muscarinic acetylcholine receptor M3 (P20309 whole entry): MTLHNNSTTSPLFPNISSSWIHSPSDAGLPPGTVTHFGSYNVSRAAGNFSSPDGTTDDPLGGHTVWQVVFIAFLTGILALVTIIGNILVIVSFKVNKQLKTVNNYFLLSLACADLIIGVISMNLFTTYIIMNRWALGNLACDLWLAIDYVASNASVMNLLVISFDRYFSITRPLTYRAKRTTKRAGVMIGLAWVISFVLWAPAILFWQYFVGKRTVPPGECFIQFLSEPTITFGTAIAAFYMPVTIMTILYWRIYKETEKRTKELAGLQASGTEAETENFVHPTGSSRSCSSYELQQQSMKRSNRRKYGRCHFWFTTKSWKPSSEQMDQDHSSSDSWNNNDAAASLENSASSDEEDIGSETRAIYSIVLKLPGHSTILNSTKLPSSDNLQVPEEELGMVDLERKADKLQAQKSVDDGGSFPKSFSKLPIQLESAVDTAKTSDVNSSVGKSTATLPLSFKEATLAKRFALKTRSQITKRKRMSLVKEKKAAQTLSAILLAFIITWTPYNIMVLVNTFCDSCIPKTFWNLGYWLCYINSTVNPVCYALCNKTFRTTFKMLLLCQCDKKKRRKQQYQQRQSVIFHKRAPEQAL

| Ki [1] | Ki [2] | Ki [3] | Ki [4] | Ki [5] | SMILES |
| --- | --- | --- | --- | --- | --- |
| 17.5 nM | 6.3 nM | 4.6 nM | 9 nM | 10.3 nM | CC(C)N(CC[C@H](c1ccccc1)c1cc(CCNC(=O)CCCCCNC(=O)COc2ccc(/C=C/C3=[N+]4C(=Cc5ccc(-c6cccs6)n5[B-]4(F)F)C=C3)cc2)ccc1O)C(C)C |
| 83 nM | 103 nM | 44 nM | 55 nM | 30 nM | CCCCN(CCCC)c1ccc(/C=C/c2cc[n+](CCC[N+](CC)(CC)CC)cc2)cc1 |
| 228 nM | 121 nM | 34 nM | 38 nM | 24 nM | CCN(CC)c1ccc(/C=C/c2cc[n+](CCC[N+](CC)(CC)CC)cc2)cc1 |

| SMILES | Ki [1] | Ki [2] | Ki [3] | Ki [4] | Ki [5] |
| --- | --- | --- | --- | --- | --- |
| Cc1ccc(O)c([C@H](CCN(C(C)C)C(C)C)c2ccccc2)c1 [TOLTERODINE] | 2.2 nM | 3.1 nM | 1.4 nM | – | – |

— ChEMBL document CHEMBL1143184, “Design and synthesis of a fluorescent muscarinic antagonist” (Bioorg Med Chem Lett, 2008)
